From article PMC8158254, “Anion inhibition studies of the α-carbonic anhydrases from Neisseria gonorrhoeae” (Journal of Enzyme Inhibition and Medicinal Chemistry, 2021)
Read-outs that look alike come from different tables or passages of the source.

Target: T1, NgCA (Neisseria gonorrhoeae, UniProt Q50940)
T1 construct: gene cah
T1 sequence (Q50940 27-252): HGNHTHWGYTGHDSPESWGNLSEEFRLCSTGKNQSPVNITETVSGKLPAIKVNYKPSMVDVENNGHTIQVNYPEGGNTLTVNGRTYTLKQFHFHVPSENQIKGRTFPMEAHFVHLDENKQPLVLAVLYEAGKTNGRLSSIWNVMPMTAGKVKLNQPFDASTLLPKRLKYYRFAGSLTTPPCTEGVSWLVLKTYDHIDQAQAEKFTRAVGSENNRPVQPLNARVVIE
Assay: biochemical

| SMILES | Ki (read-out: NgCA) | also measured |
| --- | --- | --- |
| O=S(=O)(O)NS(=O)(=O)O [NH(SO3)2^2-] | 250 µM | – |
| NS(N)(=O)=O [NH2SO2NH2] | 58 µM | – |
| O=S(=O)(O)O [SO4^2-] | – | Ki: 830 µM |
| O=[N+]([O-])O [NO3^−] | 850 µM | – |
| I [I^−] | – | Ki: 9600 µM |
| F[P-](F)(F)(F)(F)F [PF6^−] | – | Ki (sodium salt, CO2 substrate, 10 mM Hepes pH 7.4, 10 mM NaClO4, 15 min preincubation at room temperature, read-out: hCA I): > 100000 µM |
| O=S(=O)(O)C(F)(F)F [CF3SO3^−] | 5700 µM | – |
| Cl [Cl^−] | 4800 µM | – |
| O=S(=O)(O)F [FSO3^−] | 610 µM | – |
| OB(O)c1ccccc1 [PhB(OH)2] | 150 µM | – |
| [O]=[Ru](=[O])(=[O])[OH] [RuO4^−] | 1900 µM | – |
| CCN(CC)C(=S)S [EtNCS2^−] | 5.1 µM | – |
| [O]=[V]([OH])([OH])[O][V](=[O])([OH])[OH] [V2O7^2-] | 2800 µM | – |
| N#C[SeH] [SeCN^−] | 660 µM | – |
| N#CS [NCS^−] | – | Ki: 920 µM |
| F [F^−] | 8300 µM | – |
| N#CO [NCO^−] | 430 µM | – |
| [O-][Cl+3]([O-])([O-])O [ClO4^−] | > 100000 µM | – |
| O=[Te](=O)(O)O [TeO4^2-] | 760 µM | – |
| O=[Se](=O)(O)O [SeO4^2-] | 870 µM | – |
| O=S(O)O [HSO3^−] | 660 µM | – |
| Br [Br^−] | 4000 µM | – |
| O=NO [NO2^−] | 590 µM | – |
| O=S(=O)(O)OOS(=O)(=O)O [S2O8^2-] | 790 µM | – |
| O=P(O)(O)OP(=O)(O)O [P2O7^2-] | – | Ki: 4900 µM |
| NS(=O)(=O)O [NH2SO3H] | 24 µM | – |
| [O]=[Re](=[O])(=[O])[OH] [ReO4^−] | 960 µM | – |
| S=C(S)S [CS3^2-] | 88 µM | – |
| S [HS^−] | 550 µM | – |
